Laboratory results published in US20040106545A1, “Compounds and methods for modulating cell adhesion” (priority 1996, published 2004).
“Also recorded” adds a separate entry of the source. Like-named read-outs stand apart in the source and are kept apart here. Positions of bridges follow the written chain, without caps; N, C: chain ends. Residues, ends and D or L forms follow the SMILES beside them.

Tests used:
MDA-MB231 = format: cell-based, human; conditions: 3 h
Summary of the method: (§1)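 Peptide concentrations reached 100 μM. Both an MTT cytotoxicity read-out and ^3H-thymidine incorporation for proliferation were used.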

WI-38 = format: cell-based, human; conditions: 3 h
Summary of the method: as §1

IAFp2 = format: cell-based, human; conditions: 3 h
Summary of the method: as §1

PC-3 = format: cell-based, human; conditions: 3 h
Summary of the method: as §1

HMVEC = format: cell-based, human; conditions: 3 h
Summary of the method: as §1

HUVEC = format: cell-based, human; conditions: 3 h
Summary of the method: as §1

[1] = test system: SKOV3 human ovarian cancer cells; test: Induction of apoptosis in SKOV3 cancer cells, in situ cell death detection; format: cell-based; conditions: 0.5 or 0.25 mg/mL, 48 hours
Protocol: Direct assays of induction of apoptosis may be performed using any standard technique. For example, cadherin-expressing cells (e.g., SKOV3 human ovarian cancer cells) may be plated onto poly-L-lysine coated glass slides and cultured with 500 μg/mL of modulating agent for 24-48 hours. Cells may then be fixed and assayed for cell death using any of a variety of well known methods. For example, an in situ cell death detection kit may be purchased from Boehringer Mannheim (Laval, Quebec) and used according to the manufacturer's instructions.
SKOV3 human ovarian cancer cells cultured in the presence of either N—Ac-CHAVC-NH2 (SEQ ID NO:10) or a control peptide (N—Ac-CHGVC-NH2; SEQ ID NO:11) in MEM with 10% FBS were plated onto poly-L-lysine coated glass slides. The cells were cultured for 24 or 48 hours and fixed with 4% paraformaldehyde for 30 minutes at room temperature. The slides were then washed three times with PBS and assessed for cell death. Cells were treated with 0.5 or 0.25 mg/mL of N—Ac-CHAVC-NH2 (SEQ ID NO:10) or the control N—Ac-CHGVC-NH2 (SEQ ID NO:11), as indicated. Cell death was measured as described by Gavrieli et al, J. Cell. Biol. 119:493-501, 1992 and using the In situ cell death detection kit (Boehringer Mannheim; Laval, Quebec).

[2] = Cytotoxicity, MTT assay, PC-3; format: cell-based, human; conditions: human, MTT assay, read-out: PC-3 Cytotox (IC50)
Summary of the method: as §1

| IC50 (MDA-MB231) | IC50 (IAFp2) | IC50 (PC-3) | IC50 (HMVEC) | SMILES | IC50 (WI-38) | IC50 (HUVEC) | cell death of SKOV3 cells [1] | IC50 ([2]; PC-3 prostate cancer cell line) | IC50 ([2]; PC-3 cells (human prostate cancer cell line)) |
| --- | --- | --- | --- | --- | --- | --- | --- | --- | --- |
| > 100 µM | > 100 µM | > 100 µM | > 100 µM | CC[C@H](C)[C@@H]1NC(=O)[C@H](CC(=O)O)NC(=O)[C@H](C(C)C)NC(=O)[C@H](C)NC(=O)[C@H](Cc2c[nH]cn2)NC(=O)[C@H](C)NC(=O)[C@@H](NC(C)=O)CSSC[C@@H](C(N)=O)NC1=O (Ac-CAHAVDIC-NH2; disulfide 1-8) | > 100 µM | > 100 µM | – | – | – |
| > 100 µM | > 100 µM | > 100 µM | > 100 µM | CC(=O)N[C@H]1CSSC[C@@H](C(N)=O)NC(=O)[C@H](CC(=O)O)NC(=O)[C@H](C(C)C)NC(=O)[C@H](C)NC(=O)[C@H](Cc2c[nH]cn2)NC(=O)[C@H](C)NC1=O [N—Ac—CAHAVDC—NH2, N-Ac-Cys-Ala-His-Ala-Val-Asp-Cys-NH2] (Ac-CAHAVDC-NH2; disulfide 1-7) | > 100 µM | > 100 µM | – | – | – |
| – | – | – | – | CC(=O)N[C@H]1CSSC[C@@H](C(N)=O)NC(=O)[C@H](C(C)C)NC(=O)[C@H](C)NC(=O)[C@H](Cc2c[nH]cn2)NC1=O [N—Ac—CHAVC—NH2, N-Ac-Cys-His-Ala-Val-Cys-NH2] | – | – | fluorescent green nuclei in FIGS. 35C and 35D indicate cell death; also recorded: can cause human ovarian cancer cell death | > 100 µM | – |
| – | – | – | – | CC(=O)N[C@H]1CSSC[C@@H](C(N)=O)NC(=O)[C@H](C(C)C)NC(=O)CNC(=O)[C@H](Cc2c[nH]cn2)NC1=O [N—Ac—CHGVC—NH2, reference compound] | – | – | did not die | – | > 100 µM |
